Results published in patent US9936701B2, “Herbicidal compounds” (Syngenta Participations AG, priority 2013, dated 2018).

system: a variety of test species; test: Pre-emergence herbicidal activity (glasshouse, sprayed one day after sowing, evaluated after 13 days); format: in vivo; parameters: key: 5=total damage to plant; 0=no damage to plant; conditions: ABUTH, application pre-emergence, rate 1000 g/Ha, scale 0-5
In short: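 Damage was rated 13 days after treatment on a 0–5 scale (0 = no damage, 5 = total damage). Pots of seeds in standard soil were sprayed one day after sowing with an aqueous solution from an acetone/water (50:50), 0.5% Tween 20 formulation and kept at 24/16 °C day/night.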

Row | SMILES | Pre-emergence herbicidal damage score, ABUTH
1 | CC(=O)OC1C(C)=C(Cl)C(=O)N1c1noc(C(C)(C)C)c1C#N (stereo not shown) [A94, [1-(5-tert-butyl-4-cyano-isoxazol-3-yl)-4-chloro-3-methyl-5-oxo-2H-pyrrol-2-yl]acetate] | 5
2 | CC1=C(Cl)C(=O)N(c2noc(C(C)(C)C)c2C#N)C1OC(=O)C(C)(C)C (stereo not shown) [A95] | 4
3 | CCCC1=C(Cl)C(=O)N(c2noc(C(C)(C)C)c2C#N)C1OC(=O)CC (stereo not shown) [A100] | 5
4 | CC1=C(Cl)C(=O)N(c2cc(C(C)(C)C)on2)C1 [A101] | 5

same assay, conditions: ALOMY, application pre-emergence, rate 1000 g/Ha, scale 0-5

Row | SMILES | Pre-emergence herbicidal damage score, ALOMY
5 | CC(=O)OC1C(C)=C(Cl)C(=O)N1c1noc(C(C)(C)C)c1C#N (stereo not shown) [A94, [1-(5-tert-butyl-4-cyano-isoxazol-3-yl)-4-chloro-3-methyl-5-oxo-2H-pyrrol-2-yl]acetate] | 4
6 | CC1=C(Cl)C(=O)N(c2noc(C(C)(C)C)c2C#N)C1OC(=O)C(C)(C)C (stereo not shown) [A95] | 4
7 | CCCC1=C(Cl)C(=O)N(c2noc(C(C)(C)C)c2C#N)C1OC(=O)CC (stereo not shown) [A100] | 4
8 | CC1=C(Cl)C(=O)N(c2cc(C(C)(C)C)on2)C1 [A101] | 4

same assay, conditions: AMARE, application pre-emergence, rate 1000 g/Ha, scale 0-5

Row | SMILES | Pre-emergence herbicidal damage score, AMARE
9 | CC(=O)OC1C(C)=C(Cl)C(=O)N1c1noc(C(C)(C)C)c1C#N (stereo not shown) [A94, [1-(5-tert-butyl-4-cyano-isoxazol-3-yl)-4-chloro-3-methyl-5-oxo-2H-pyrrol-2-yl]acetate] | 5
10 | CC1=C(Cl)C(=O)N(c2noc(C(C)(C)C)c2C#N)C1OC(=O)C(C)(C)C (stereo not shown) [A95] | 5
11 | CCCC1=C(Cl)C(=O)N(c2noc(C(C)(C)C)c2C#N)C1OC(=O)CC (stereo not shown) [A100] | 5
12 | CC1=C(Cl)C(=O)N(c2cc(C(C)(C)C)on2)C1 [A101] | 5

same assay, conditions: ECHCG, application pre-emergence, rate 1000 g/Ha, scale 0-5

Row | SMILES | Pre-emergence herbicidal damage score, ECHCG
13 | CC(=O)OC1C(C)=C(Cl)C(=O)N1c1noc(C(C)(C)C)c1C#N (stereo not shown) [A94, [1-(5-tert-butyl-4-cyano-isoxazol-3-yl)-4-chloro-3-methyl-5-oxo-2H-pyrrol-2-yl]acetate] | 5
14 | CC1=C(Cl)C(=O)N(c2noc(C(C)(C)C)c2C#N)C1OC(=O)C(C)(C)C (stereo not shown) [A95] | 5
15 | CCCC1=C(Cl)C(=O)N(c2noc(C(C)(C)C)c2C#N)C1OC(=O)CC (stereo not shown) [A100] | 5
16 | CC1=C(Cl)C(=O)N(c2cc(C(C)(C)C)on2)C1 [A101] | 5

same assay, conditions: SETFA, application pre-emergence, rate 1000 g/Ha, scale 0-5

Row | SMILES | Pre-emergence herbicidal damage score, SETFA
17 | CC(=O)OC1C(C)=C(Cl)C(=O)N1c1noc(C(C)(C)C)c1C#N (stereo not shown) [A94, [1-(5-tert-butyl-4-cyano-isoxazol-3-yl)-4-chloro-3-methyl-5-oxo-2H-pyrrol-2-yl]acetate] | 5
18 | CC1=C(Cl)C(=O)N(c2noc(C(C)(C)C)c2C#N)C1OC(=O)C(C)(C)C (stereo not shown) [A95] | 5
19 | CCCC1=C(Cl)C(=O)N(c2noc(C(C)(C)C)c2C#N)C1OC(=O)CC (stereo not shown) [A100] | 5
20 | CC1=C(Cl)C(=O)N(c2cc(C(C)(C)C)on2)C1 [A101] | 4

same assay, conditions: ZEAMX, application pre-emergence, rate 1000 g/Ha, scale 0-5

Row | SMILES | Pre-emergence herbicidal damage score, ZEAMX
21 | CC(=O)OC1C(C)=C(Cl)C(=O)N1c1noc(C(C)(C)C)c1C#N (stereo not shown) [A94, [1-(5-tert-butyl-4-cyano-isoxazol-3-yl)-4-chloro-3-methyl-5-oxo-2H-pyrrol-2-yl]acetate] | 3
22 | CC1=C(Cl)C(=O)N(c2noc(C(C)(C)C)c2C#N)C1OC(=O)C(C)(C)C (stereo not shown) [A95] | 3
23 | CCCC1=C(Cl)C(=O)N(c2noc(C(C)(C)C)c2C#N)C1OC(=O)CC (stereo not shown) [A100] | 3
24 | CC1=C(Cl)C(=O)N(c2cc(C(C)(C)C)on2)C1 [A101] | 3

system: a variety of test species; test: Post-emergence herbicidal activity (glasshouse, sprayed after 8 days cultivation, evaluated after 13 days); format: in vivo; parameters: key: 5=total damage to plant; 0=no damage to plant; conditions: Abutilon theophrasti, rate 1000 g/Ha, scale 0-5
In short: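 Damage was rated 0-5 (5 = total) 13 days after a post-emergence spray of acetone/water (50:50) plus 0.5% Tween 20 formulation. Plants were sprayed at 8 days' growth and kept at 24/16° C, 14 h light, 65% humidity, watered twice daily.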

Row | SMILES | ABUTH (Abutilon theophrasti) damage score, application post-emergence
25 | CC(=O)OC1C(C)=C(Cl)C(=O)N1c1noc(C(C)(C)C)c1C#N (stereo not shown) [A94, [1-(5-tert-butyl-4-cyano-isoxazol-3-yl)-4-chloro-3-methyl-5-oxo-2H-pyrrol-2-yl]acetate] | 5
26 | CC1=C(Cl)C(=O)N(c2noc(C(C)(C)C)c2C#N)C1OC(=O)C(C)(C)C (stereo not shown) [A95] | 5
27 | CCCC1=C(Cl)C(=O)N(c2noc(C(C)(C)C)c2C#N)C1OC(=O)CC (stereo not shown) [A100] | 5
28 | CC1=C(Cl)C(=O)N(c2cc(C(C)(C)C)on2)C1 [A101] | 5

same assay, conditions: Alopecurus myosuroides, rate 1000 g/Ha, scale 0-5

Row | SMILES | ALOMY (Alopecurus myosuroides) damage score, application post-emergence
29 | CC(=O)OC1C(C)=C(Cl)C(=O)N1c1noc(C(C)(C)C)c1C#N (stereo not shown) [A94, [1-(5-tert-butyl-4-cyano-isoxazol-3-yl)-4-chloro-3-methyl-5-oxo-2H-pyrrol-2-yl]acetate] | 5
30 | CC1=C(Cl)C(=O)N(c2noc(C(C)(C)C)c2C#N)C1OC(=O)C(C)(C)C (stereo not shown) [A95] | 5
31 | CCCC1=C(Cl)C(=O)N(c2noc(C(C)(C)C)c2C#N)C1OC(=O)CC (stereo not shown) [A100] | 5
32 | CC1=C(Cl)C(=O)N(c2cc(C(C)(C)C)on2)C1 [A101] | 5

same assay, conditions: Amaranthus retroflexus, rate 1000 g/Ha, scale 0-5

Row | SMILES | AMARE (Amaranthus retroflexus) damage score, application post-emergence
33 | CC(=O)OC1C(C)=C(Cl)C(=O)N1c1noc(C(C)(C)C)c1C#N (stereo not shown) [A94, [1-(5-tert-butyl-4-cyano-isoxazol-3-yl)-4-chloro-3-methyl-5-oxo-2H-pyrrol-2-yl]acetate] | 5
34 | CC1=C(Cl)C(=O)N(c2noc(C(C)(C)C)c2C#N)C1OC(=O)C(C)(C)C (stereo not shown) [A95] | 5
35 | CCCC1=C(Cl)C(=O)N(c2noc(C(C)(C)C)c2C#N)C1OC(=O)CC (stereo not shown) [A100] | 5
36 | CC1=C(Cl)C(=O)N(c2cc(C(C)(C)C)on2)C1 [A101] | 5

same assay, conditions: Echinochloa crus-galli, rate 1000 g/Ha, scale 0-5

Row | SMILES | ECHCG (Echinochloa crus-galli) damage score, application post-emergence
37 | CC(=O)OC1C(C)=C(Cl)C(=O)N1c1noc(C(C)(C)C)c1C#N (stereo not shown) [A94, [1-(5-tert-butyl-4-cyano-isoxazol-3-yl)-4-chloro-3-methyl-5-oxo-2H-pyrrol-2-yl]acetate] | 5
38 | CC1=C(Cl)C(=O)N(c2noc(C(C)(C)C)c2C#N)C1OC(=O)C(C)(C)C (stereo not shown) [A95] | 5
39 | CCCC1=C(Cl)C(=O)N(c2noc(C(C)(C)C)c2C#N)C1OC(=O)CC (stereo not shown) [A100] | 5
40 | CC1=C(Cl)C(=O)N(c2cc(C(C)(C)C)on2)C1 [A101] | 5

same assay, conditions: Setaria faberi, rate 1000 g/Ha, scale 0-5

Row | SMILES | SETFA (Setaria faberi) damage score, application post-emergence
41 | CC(=O)OC1C(C)=C(Cl)C(=O)N1c1noc(C(C)(C)C)c1C#N (stereo not shown) [A94, [1-(5-tert-butyl-4-cyano-isoxazol-3-yl)-4-chloro-3-methyl-5-oxo-2H-pyrrol-2-yl]acetate] | 5
42 | CC1=C(Cl)C(=O)N(c2noc(C(C)(C)C)c2C#N)C1OC(=O)C(C)(C)C (stereo not shown) [A95] | 5
43 | CCCC1=C(Cl)C(=O)N(c2noc(C(C)(C)C)c2C#N)C1OC(=O)CC (stereo not shown) [A100] | 5
44 | CC1=C(Cl)C(=O)N(c2cc(C(C)(C)C)on2)C1 [A101] | 5

same assay, conditions: Zea mays, rate 1000 g/Ha, scale 0-5

Row | SMILES | ZEAMX (Zea mays) damage score, application post-emergence
45 | CC(=O)OC1C(C)=C(Cl)C(=O)N1c1noc(C(C)(C)C)c1C#N (stereo not shown) [A94, [1-(5-tert-butyl-4-cyano-isoxazol-3-yl)-4-chloro-3-methyl-5-oxo-2H-pyrrol-2-yl]acetate] | 4
46 | CC1=C(Cl)C(=O)N(c2noc(C(C)(C)C)c2C#N)C1OC(=O)C(C)(C)C (stereo not shown) [A95] | 3
47 | CCCC1=C(Cl)C(=O)N(c2noc(C(C)(C)C)c2C#N)C1OC(=O)CC (stereo not shown) [A100] | 5
48 | CC1=C(Cl)C(=O)N(c2cc(C(C)(C)C)on2)C1 [A101] | 4

system: not given; test: not given; conditions: not given

Row | SMILES | melting point [°C]
49 | CC(=O)OC1C(C)=C(Cl)C(=O)N1c1noc(C(C)(C)C)c1C#N (stereo not shown) [A94, [1-(5-tert-butyl-4-cyano-isoxazol-3-yl)-4-chloro-3-methyl-5-oxo-2H-pyrrol-2-yl]acetate] | 130 to 132
50 | CC1=C(Cl)C(=O)N(c2noc(C(C)(C)C)c2C#N)C1OC(=O)C(C)(C)C (stereo not shown) [A95] | 95 to 97
51 | CCCC1=C(Cl)C(=O)N(c2noc(C(C)(C)C)c2C#N)C1OC(=O)CC (stereo not shown) [A100] | 69 to 71
52 | CC1=C(Cl)C(=O)N(c2cc(C(C)(C)C)on2)C1 [A101] | 138 to 139
